Measurements published in PubChem BioAssay (NCI).
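Test compounds were applied to cells in 96-well plates for 48 hours at 5 doses. The concentration for full growth arrest is given as TGI.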

Legend:
Experiment in all cases: NCI tumour cell line growth inhibition, 48 h
DMS 114 small cell lung = tested on: DMS 114 small cell lung
K-562 leukemia = tested on: K-562 leukemia
HCT-116 colon = tested on: HCT-116 colon
LXFL 529 NSCLC = tested on: LXFL 529 NSCLC
HOP-92 NSCLC = tested on: HOP-92 NSCLC
OVCAR-3 ovarian = tested on: OVCAR-3 ovarian
OVCAR-4 ovarian = tested on: OVCAR-4 ovarian
RXF 393 renal = tested on: RXF 393 renal

Compound | TGI (DMS 114 small cell lung) [µM] | TGI (K-562 leukemia) [µM] | TGI (HCT-116 colon) [µM] | TGI (LXFL 529 NSCLC) [µM] | TGI (HOP-92 NSCLC) [µM] | TGI (OVCAR-3 ovarian) [µM] | TGI (OVCAR-4 ovarian) [µM] | TGI (RXF 393 renal) [µM]
Cc1ccc(S(=O)(=O)OCCn2cnc3nc(NC(=O)c4ccccc4)[nH]c(=O)c32)cc1 | > 100 | > 100 | > 100 | > 100 | > 100 | > 100 | > 100 | > 100
C/C(=C1/N=C(c2cc([N+](=O)[O-])ccc2Cl)N(c2cccc(C)c2)C1=O)c1cc2ccccc2oc1=O | > 100 | > 100 | > 100 | > 100 | > 100 | > 100 |  | > 100
CN1c2ccccc2N(C(=O)c2ccc([N+](=O)[O-])cc2)C(CC(=O)O)c2cccn21 (stereo not given) | > 100 | > 100 |  | > 100 | > 100 | > 100 | > 100 | > 100
COC(=O)C(C(=O)C(=O)Nc1c(C)cccc1C)c1cnc2ccccc2n1 (stereo not given) | > 100 | > 100 | > 100 | > 100 | > 100 |  | > 100 | > 100
CN1C(=O)CCC1(O)C1C=CC=CC1 (stereo not given) | > 100 | > 100 | > 100 | > 100 |  | > 100 | > 100 | > 100
CC1=Nc2ccccc2S/C1=C(/C)NNS(=O)(=O)c1ccc(C)cc1 | > 100 | > 100 | > 100 | > 100 | > 100 | > 100 | > 100 | > 100
COc1ccc(NC(=O)C(=O)c2c(O)c3ccc(O)cc3oc2=O)c([N+](=O)[O-])c1 | > 100 | > 100 | > 100 | > 100 | > 100 | > 100 | > 100 | > 100
O=C(/C=C/c1cc(Cl)cc(Cl)c1O)c1cccc(O)c1 | > 100 | > 100 | > 100 | > 100 | 84.9 | > 100 | > 100 | > 100
O=C(NCCCCCCCCCCCCNC(=O)c1cccc2ccccc12)c1cccc2ccccc12 | > 100 | > 100 | > 100 | > 100 | > 72.1 | > 67.6 | 20.5 | > 100
O=C1NC(Cc2ccc(O)cc2)C(=O)N2CCCC12 (stereo not given) | > 100 | > 100 | > 100 | > 100 | > 100 | > 100 | > 100 | > 100
Cc1nc(-n2nc(-c3ccccc3)cc2-c2ccccc2)sc1C(=O)/C=C/c1ccc(/C=C/C(=O)c2sc(-n3nc(-c4ccccc4)cc3-c3ccccc3)nc2C)cc1 | > 100 | > 100 | 37.4 | 67.3 |  | 59.3 | > 100 | 42.9
CN(CCN1C(=O)c2cc([N+](=O)[O-])cc3cc([N+](=O)[O-])cc(c23)C1=O)CCN1C(=O)c2cc([N+](=O)[O-])cc3cc([N+](=O)[O-])cc(c23)C1=O | 46.9 | > 100 | 9.18 | 20.1 | 2.2 | > 28 | > 100 | 1.04
CN(C)C=Nc1ccn(CCO)c(=O)n1 | > 100 | > 100 | > 100 | > 100 |  | > 100 | > 100 | > 100
Cc1c(Cl)cccc1NC(=O)C(=O)C(C(=O)c1ccccc1-c1ccccc1)C1OC(=O)c2ccccc21 (stereo not given) | 43.5 | > 100 | 25 | 27.9 | 34.4 | 33.8 |  | 27.1
CCC(C)CCOC(=O)c1ccc(N=Cc2ccc(C=Nc3ccc(C(=O)OCCC(C)CC)cc3)cc2)cc1 (stereo not given) | > 100 | > 100 | > 100 | > 100 | > 100 | > 100 | > 100 | > 100
Cc1cc(NCCCCCCCCNc2cc(C)nc3cc(N)ccc23)c2ccc(N)cc2n1 | 30.8 | 16.3 |  | 45.2 |  | 37.4 | > 100 | > 100
COC(=O)C(Cc1cc(OC)c(OC)c(OC)c1)C(=O)OC | > 320 | > 320 |  | > 320 | > 320 | > 320 |  | > 320
